In PubChem BioAssay (NCI):
Several values for one entry are separate records, joined by “and”; a condition that tells them apart may be missing. Equal values may be shown once.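 Following 48 hours of exposure in 96-well plates, responses at five concentrations were used to interpolate endpoints linearly. Here, GI50 denotes the concentration required for 50% inhibition of growth. TGI: concentration producing complete growth inhibition.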

What was measured:
Assay in all cases: growth of human tumour cells (NCI), 48 h; in the data active means GI50 below about 0.43 µM; inactive means the rest
NCI-H522 lung = tested on: NCI-H522 lung
SK-MEL-2 melanoma = tested on: SK-MEL-2 melanoma
SNB-75 CNS = tested on: SNB-75 CNS
CAKI-1 renal = tested on: CAKI-1 renal
HOP-92 NSCLC = tested on: HOP-92 NSCLC
HT29 colon = tested on: HT29 colon
RPMI-8226 leukemia = tested on: RPMI-8226 leukemia
KM12 colon = tested on: KM12 colon
UACC-257 melanoma = tested on: UACC-257 melanoma
OVCAR-4 ovarian = tested on: OVCAR-4 ovarian
CCRF-CEM leukemia = tested on: CCRF-CEM leukemia
NCI-H460 lung = tested on: NCI-H460 lung
NCI/ADR-RES ovarian = tested on: NCI/ADR-RES ovarian
HS 578T breast = tested on: HS 578T breast
NCI-H23 lung = tested on: NCI-H23 lung
U251 CNS = tested on: U251 CNS
OVCAR-3 ovarian = tested on: OVCAR-3 ovarian
SF-268 CNS = tested on: SF-268 CNS
A549 NSCLC = tested on: A549 NSCLC
PC-3 prostate = tested on: PC-3 prostate
SR leukemia = tested on: SR leukemia
SK-MEL-28 melanoma = tested on: SK-MEL-28 melanoma
K-562 leukemia = tested on: K-562 leukemia
BT-549 breast = tested on: BT-549 breast
M14 melanoma = tested on: M14 melanoma
ACHN renal = tested on: ACHN renal
T-47D breast = tested on: T-47D breast
SW-620 colon = tested on: SW-620 colon
SK-MEL-5 melanoma = tested on: SK-MEL-5 melanoma
IGROV1 ovarian = tested on: IGROV1 ovarian
HOP-62 NSCLC = tested on: HOP-62 NSCLC
786-0 renal = tested on: 786-0 renal
NCI-H226 lung = tested on: NCI-H226 lung
UO-31 renal = tested on: UO-31 renal
UACC-62 melanoma = tested on: UACC-62 melanoma
MDA-MB-468 breast = tested on: MDA-MB-468 breast
HCT-116 colon = tested on: HCT-116 colon
SF-295 CNS = tested on: SF-295 CNS
HCT-15 colon = tested on: HCT-15 colon
OVCAR-8 ovarian = tested on: OVCAR-8 ovarian
OVCAR-5 ovarian = tested on: OVCAR-5 ovarian
SK-OV-3 ovarian = tested on: SK-OV-3 ovarian
LOX IMVI melanoma = tested on: LOX IMVI melanoma
MOLT-4 leukemia = tested on: MOLT-4 leukemia
MDA-MB-435 = tested on: MDA-MB-435
MALME-3M melanoma = tested on: MALME-3M melanoma
HCC-2998 colon = tested on: HCC-2998 colon
DU-145 prostate = tested on: DU-145 prostate
SN12C renal = tested on: SN12C renal
EKVX NSCLC = tested on: EKVX NSCLC
MDA-MB-231 breast = tested on: MDA-MB-231 breast
TK-10 renal = tested on: TK-10 renal
A498 renal = tested on: A498 renal
MCF7 breast = tested on: MCF7 breast
COLO 205 colon = tested on: COLO 205 colon
SNB-19 CNS = tested on: SNB-19 CNS
SF-539 CNS = tested on: SF-539 CNS
HL-60(TB) leukemia = tested on: HL-60(TB) leukemia

COc1ccc(C(=O)/C=C/c2ccc(OCc3ccccc3)c(OC)c2)cc1OC
43 µM: TGI (NCI-H23 lung)
87.3 µM: TGI (NCI-H226 lung)
> 100 µM: TGI (CAKI-1 renal) | TGI (HOP-92 NSCLC) | TGI (HT29 colon) | TGI (RPMI-8226 leukemia) | TGI (KM12 colon) | TGI (UACC-257 melanoma) | TGI (OVCAR-4 ovarian) | TGI (CCRF-CEM leukemia) | TGI (HS 578T breast) | TGI (U251 CNS) | TGI (OVCAR-3 ovarian) | TGI (SF-268 CNS) | TGI (A549 NSCLC) | TGI (PC-3 prostate) | TGI (SR leukemia) | TGI (SK-MEL-28 melanoma) | TGI (K-562 leukemia) | TGI (M14 melanoma) | TGI (ACHN renal) | TGI (T-47D breast) | TGI (SW-620 colon) | TGI (IGROV1 ovarian) | TGI (HOP-62 NSCLC) | TGI (786-0 renal) | TGI (UO-31 renal) | TGI (UACC-62 melanoma) | TGI (HCT-116 colon) | TGI (SF-295 CNS) | TGI (OVCAR-8 ovarian) | TGI (SK-OV-3 ovarian) | TGI (MOLT-4 leukemia) | TGI (MALME-3M melanoma) | TGI (DU-145 prostate) | TGI (EKVX NSCLC) | TGI (TK-10 renal) | TGI (MCF7 breast) | TGI (COLO 205 colon) | TGI (SNB-19 CNS)
94.2 µM: TGI (A498 renal)
inactive: GI50 (NCI-H522 lung) 4.86 µM | GI50 (SK-MEL-2 melanoma) 17.4 µM | GI50 (SNB-75 CNS) 18.7 µM | GI50 (CAKI-1 renal) 16.7 µM | GI50 (HOP-92 NSCLC) 6.03 µM | GI50 (HT29 colon) 3.52 µM | GI50 (RPMI-8226 leukemia) 3.02 µM | GI50 (KM12 colon) 5.19 µM | GI50 (UACC-257 melanoma) 29.3 µM | GI50 (OVCAR-4 ovarian) 4.28 µM | GI50 (CCRF-CEM leukemia) 4.01 µM | GI50 (NCI-H460 lung) 4.6 µM | GI50 (NCI/ADR-RES ovarian) 5.08 µM | GI50 (HS 578T breast) 18.4 µM | GI50 (NCI-H23 lung) 6.95 µM | GI50 (U251 CNS) 3.16 µM | GI50 (OVCAR-3 ovarian) 4.48 µM | GI50 (SF-268 CNS) 10.8 µM | GI50 (A549 NSCLC) 10.4 µM | GI50 (PC-3 prostate) 7.05 µM | GI50 (SR leukemia) 2.8 µM | GI50 (SK-MEL-28 melanoma) 34 µM | GI50 (K-562 leukemia) 3.06 µM | GI50 (BT-549 breast) 5.08 µM | GI50 (M14 melanoma) 27.4 µM | GI50 (ACHN renal) 15.3 µM | GI50 (T-47D breast) 5.46 µM | GI50 (SW-620 colon) 3.64 µM | GI50 (SK-MEL-5 melanoma) 17.4 µM | GI50 (IGROV1 ovarian) 6.33 µM | GI50 (HOP-62 NSCLC) 4.95 µM | GI50 (786-0 renal) 25.4 µM | GI50 (NCI-H226 lung) 5.34 µM | GI50 (UO-31 renal) 5.38 µM | GI50 (UACC-62 melanoma) 6.42 µM | GI50 (MDA-MB-468 breast) 2.15 µM and 3.99 µM | GI50 (HCT-116 colon) 3.56 µM | GI50 (SF-295 CNS) 9.59 µM | GI50 (HCT-15 colon) 3.45 µM | GI50 (OVCAR-8 ovarian) 3.6 µM | GI50 (OVCAR-5 ovarian) 12.5 µM | GI50 (SK-OV-3 ovarian) 40.5 µM | GI50 (LOX IMVI melanoma) 4.11 µM | GI50 (MOLT-4 leukemia) 4.47 µM | GI50 (MDA-MB-435) 12 µM | GI50 (MALME-3M melanoma) 41.1 µM | GI50 (HCC-2998 colon) 7.06 µM | GI50 (DU-145 prostate) 5.78 µM | GI50 (SN12C renal) 4.48 µM | GI50 (EKVX NSCLC) 11.4 µM | GI50 (MDA-MB-231 breast) 8.48 µM | GI50 (TK-10 renal) 21.4 µM | GI50 (A498 renal) 20.3 µM | GI50 (MCF7 breast) 3.44 µM | GI50 (COLO 205 colon) 15.7 µM | GI50 (SNB-19 CNS) 8.3 µM | GI50 (SF-539 CNS) 3.38 µM | GI50 (HL-60(TB) leukemia) 13.4 µM
77.2 µM: TGI (SNB-75 CNS)
7.35 µM and 32.2 µM: TGI (MDA-MB-468 breast)
92.2 µM: TGI (OVCAR-5 ovarian)
37.1 µM: TGI (LOX IMVI melanoma)
55.7 µM: TGI (BT-549 breast)
60.5 µM: TGI (SK-MEL-2 melanoma)
45.7 µM: TGI (SN12C renal)
59.6 µM: TGI (MDA-MB-435)
43.1 µM: TGI (SK-MEL-5 melanoma)
38.3 µM: TGI (NCI-H460 lung)
30 µM: TGI (HCC-2998 colon)
78.9 µM: TGI (MDA-MB-231 breast)
39.3 µM: TGI (NCI/ADR-RES ovarian)
36.3 µM: TGI (NCI-H522 lung)
13.1 µM: TGI (SF-539 CNS)
47.6 µM: TGI (HCT-15 colon)
61.2 µM: TGI (HL-60(TB) leukemia)
